Laboratory results from US20240018145A1, “[…]-DEPENDENT EN[…] TREATING OR […]” (priority 2020, published 2024).

These molecules were tested on FLU A (PR/8/34) (assay: Flu A Neuraminidase Antiviral Assay).
Format: cell-based
For `CN1C(=O)c2c(O)c(=O)ccn2N2C1CCCC2(C)c1cccc(F)c1` (single isomer, unassigned) [Compound 25A, 1-(3-fluorophenyl)-7-hydroxy-1,5-dimethyl-1,2,3,4,4a,5-hexahydrodipyrido[1,2-b:2′,1′-f][1,2,4]triazine-6,8-dione], the EC50 was 3.5 nM.
Molecule `CN1C(=O)c2c(O)c(=O)ccn2N2C1CCCC2(C)c1cccc(F)c1` (single isomer, unassigned) [Compound 25B, 1-(3-fluorophenyl)-7-hydroxy-1,5-dimethyl-1,2,3,4,4a,5-hexahydrodipyrido[1,2-b:2′,1′-f][1,2,4]triazine-6,8-dione] has an EC50 of 70.7 nM.
Work on `CN1C(=O)c2c(O)c(=O)ccn2N2C1CCCC2(C)c1ccc(F)cc1` (single isomer, unassigned) [Compound 26A, 1-(4-fluorophenyl)-7-hydroxy-1,5-dimethyl-1,2,3,4,4a,5-hexahydrodipyrido[1,2-b:2′,1′-f][1,2,4]triazine-6,8-dione] yielded an EC50 of 8.4 nM.
With `CN1C(=O)c2c(O)c(=O)ccn2N2C1CCCC2(C)c1ccc(F)cc1` (single isomer, unassigned) [Compound 26B, 1-(4-fluorophenyl)-7-hydroxy-1,5-dimethyl-1,2,3,4,4a,5-hexahydrodipyrido[1,2-b:2′,1′-f][1,2,4]triazine-6,8-dione] the EC50 was 1800 nM.
Molecule `CN1C(=O)c2c(O)c(=O)ccn2N2C1CCCC2(C)c1ncccc1F` (single isomer, unassigned) [Compound 27A, 1-(3-fluoropyridin-2-yl)-7-hydroxy-1,5-dimethyl-1,2,3,4,4a,5-hexahydrodipyrido[1,2-b:2′,1′-f][1,2,4]triazine-6,8-dione] has an EC50 of 859 nM.
`CN1C(=O)c2c(O)c(=O)ccn2N2C1CCCC2(C)c1ncccc1F` (single isomer, unassigned) [Compound 27B, 1-(3-fluoropyridin-2-yl)-7-hydroxy-1,5-dimethyl-1,2,3,4,4a,5-hexahydrodipyrido[1,2-b:2′,1′-f][1,2,4]triazine-6,8-dione] showed an EC50 of 17.1 nM.
Molecule `CN1C(=O)c2c(O)c(=O)ccn2N2C1CCCC2(C)c1cccc(Cl)c1` (single isomer, unassigned) [Compound 28A, 1-(3-chlorophenyl)-7-hydroxy-1,5-dimethyl-1,2,3,4,4a,5-hexahydrodipyrido[1,2-b:2′,1′-f][1,2,4]triazine-6,8-dione] has an EC50 of 5.2 nM.
`CN1C(=O)c2c(O)c(=O)ccn2N2C1CCCC2(C)c1cccc(Cl)c1` (single isomer, unassigned) [Compound 28B, 1-(3-chlorophenyl)-7-hydroxy-1,5-dimethyl-1,2,3,4,4a,5-hexahydrodipyrido[1,2-b:2′,1′-f][1,2,4]triazine-6,8-dione] showed an EC50 of 278 nM.
For `CC1CCC2N(C)C(=O)c3c(O)c(=O)ccn3N2C1(C)c1ccccc1` (single isomer, unassigned) [Compound 29A, 7-hydroxy-1,2,5-trimethyl-1-phenyl-1,2,3,4,4a,5-hexahydrodipyrido[1,2-b:2′,1′-f][1,2,4]triazine-6,8-dione], the EC50 was 1860 nM.
For `CC1CCC2N(C)C(=O)c3c(O)c(=O)ccn3N2C1(C)c1ccccc1` (single isomer, unassigned) [Compound 29B, 7-hydroxy-1,2,5-trimethyl-1-phenyl-1,2,3,4,4a,5-hexahydrodipyrido[1,2-b:2′,1′-f][1,2,4]triazine-6,8-dione], the EC50 was 286 nM.
`CN1C(=O)c2c(O)c(=O)ccn2N2C1CCCC2(C)c1ccccn1` (single isomer, unassigned) [Compound 30A, 7-hydroxy-1,5-dimethyl-1-(pyridin-2-yl)-1,2,3,4,4a,5-hexahydrodipyrido[1,2-b:2′,1′-f][1,2,4]triazine-6,8-dione] gave an EC50 of 16.6 nM.
With `CN1C(=O)c2c(O)c(=O)ccn2N2C1CCCC2(C)c1ccccn1` (single isomer, unassigned) [Compound 30B, 7-hydroxy-1,5-dimethyl-1-(pyridin-2-yl)-1,2,3,4,4a,5-hexahydrodipyrido[1,2-b:2′,1′-f][1,2,4]triazine-6,8-dione] the EC50 was 5300 nM.
`CN1C(=O)c2c(O)c(=O)ccn2N2C1CCCC2(C)c1ccncc1` (single isomer, unassigned) [Compound 31A, 7-hydroxy-1,5-dimethyl-1-(pyridin-4-yl)-1,2,3,4,4a,5-hexahydrodipyrido[1,2-b:2′,1′-f][1,2,4]triazine-6,8-dione] showed an EC50 of 283 nM.
In the case of `CN1C(=O)c2c(O)c(=O)ccn2N2C1CCCC2(C)c1ccncc1` (single isomer, unassigned) [Compound 31B, 7-hydroxy-1,5-dimethyl-1-(pyridin-4-yl)-1,2,3,4,4a,5-hexahydrodipyrido[1,2-b:2′,1′-f][1,2,4]triazine-6,8-dione], the EC50 is reported as > 8100 nM.
`CN1C(=O)c2c(O)c(=O)ccn2N2C1CCCC21CCCc2ccccc21` (single isomer, unassigned) [Compound 32A, 7-hydroxy-5-methyl-3,3′,4,4a,4′,5-hexahydro-2H,2′H-spiro[dipyrido[1,2-b:2′,1′-f][1,2,4]triazine-1,1′-naphthalene]-6,8-dione] was tested, and the EC50 was > 8100 nM.
For `CN1C(=O)c2c(O)c(=O)ccn2N2C1CCCC21CCCc2ccccc21` (single isomer, unassigned) [Compound 32B, 7-hydroxy-5-methyl-3,3′,4,4a,4′,5-hexahydro-2H,2′H-spiro[dipyrido[1,2-b:2′,1′-f][1,2,4]triazine-1,1′-naphthalene]-6,8-dione], the EC50 was 156 nM.
In the case of `CCCC1CCC2N(C)C(=O)c3c(O)c(=O)ccn3N2C1(C)c1ccccc1` (single isomer, unassigned) [Compound 33A, 7-hydroxy-1,5-dimethyl-1-phenyl-2-propyl-1,2,3,4,4a,5-hexahydrodipyrido[1,2-b:2′,1′-f][1,2,4]triazine-6,8-dione], the EC50 is reported as 49.5 nM.
With `CCCC1CCC2N(C)C(=O)c3c(O)c(=O)ccn3N2C1(C)c1ccccc1` (single isomer, unassigned) [Compound 33B, 7-hydroxy-1,5-dimethyl-1-phenyl-2-propyl-1,2,3,4,4a,5-hexahydrodipyrido[1,2-b:2′,1′-f][1,2,4]triazine-6,8-dione] the EC50 was 1880 nM.
`CCCC1CCC2N(C)C(=O)c3c(O)c(=O)ccn3N2C1(C)c1ccccc1` (single isomer, unassigned) [Compound 33C, 7-hydroxy-1,5-dimethyl-1-phenyl-2-propyl-1,2,3,4,4a,5-hexahydrodipyrido[1,2-b:2′,1′-f][1,2,4]triazine-6,8-dione] showed an EC50 of 1320 nM.
`CCCC1CCC2N(C)C(=O)c3c(O)c(=O)ccn3N2C1(C)c1ccccc1` (single isomer, unassigned) [Compound 33D, 7-hydroxy-1,5-dimethyl-1-phenyl-2-propyl-1,2,3,4,4a,5-hexahydrodipyrido[1,2-b:2′,1′-f][1,2,4]triazine-6,8-dione] showed an EC50 of 2.3 nM.
Work on `CC1(c2ccccc2)CCCC2N(CC(F)(F)F)C(=O)c3c(O)c(=O)ccn3N21` (single isomer, unassigned) [Compound 34A, 7-hydroxy-1-methyl-1-phenyl-5-(2,2,2-trifluoroethyl)-1,2,3,4,4a,5-hexahydrodipyrido[1,2-b:2′,1′-f][1,2,4]triazine-6,8-dione] yielded an EC50 of 3090 nM.
Molecule `CC1(c2ccccc2)CCCC2N(CC(F)(F)F)C(=O)c3c(O)c(=O)ccn3N21` (single isomer, unassigned) [Compound 34B, 7-hydroxy-1-methyl-1-phenyl-5-(2,2,2-trifluoroethyl)-1,2,3,4,4a,5-hexahydrodipyrido[1,2-b:2′,1′-f][1,2,4]triazine-6,8-dione] has an EC50 of 4.9 nM.
Molecule `CN1C(=O)c2c(O)c(=O)ccn2N2C1CCC(C)(C)C2(C)c1ccccc1` (single isomer, unassigned) [Compound 35A, 7-hydroxy-1,2,2,5-tetramethyl-1-phenyl-1,2,3,4,4a,5-hexahydrodipyrido[1,2-b:2′,1′-f][1,2,4]triazine-6,8-dione] has an EC50 of 138 nM.
`CN1C(=O)c2c(O)c(=O)ccn2N2C1CCC(C)(C)C2(C)c1ccccc1` (single isomer, unassigned) [Compound 35B, 7-hydroxy-1,2,2,5-tetramethyl-1-phenyl-1,2,3,4,4a,5-hexahydrodipyrido[1,2-b:2′,1′-f][1,2,4]triazine-6,8-dione] was tested, and the EC50 was > 8100 nM.
`CCN1C(=O)c2c(O)c(=O)ccn2N2C1CCCC2(C)c1ccccc1` (single isomer, unassigned) [Compound 36A, 5-ethyl-7-hydroxy-1-methyl-1-phenyl-1,2,3,4,4a,5-hexahydrodipyrido[1,2-b:2′,1′-f][1,2,4]triazine-6,8-dione] was tested, and the EC50 was 3.2 nM.
`CCN1C(=O)c2c(O)c(=O)ccn2N2C1CCCC2(C)c1ccccc1` (single isomer, unassigned) [Compound 36B, 5-ethyl-7-hydroxy-1-methyl-1-phenyl-1,2,3,4,4a,5-hexahydrodipyrido[1,2-b:2′,1′-f][1,2,4]triazine-6,8-dione] was tested, and the EC50 was 1290 nM.
In the case of `CC1(c2ccccc2)CCCC2N(CC3CC3)C(=O)c3c(O)c(=O)ccn3N21` (single isomer, unassigned) [Compound 37A, 5-(cyclopropylmethyl)-7-hydroxy-1-methyl-1-phenyl-1,2,3,4,4a,5-hexahydrodipyrido[1,2-b:2′,1′-f][1,2,4]triazine-6,8-dione], the EC50 is reported as 11.4 nM.
For `CC1(c2ccccc2)CCCC2N(CC3CC3)C(=O)c3c(O)c(=O)ccn3N21` (single isomer, unassigned) [Compound 37B, 5-(cyclopropylmethyl)-7-hydroxy-1-methyl-1-phenyl-1,2,3,4,4a,5-hexahydrodipyrido[1,2-b:2′,1′-f][1,2,4]triazine-6,8-dione], the EC50 was 1240 nM.
In the case of `CC1(c2ccccc2)CCCC2N(CCC(F)(F)F)C(=O)c3c(O)c(=O)ccn3N21` (single isomer, unassigned) [Compound 38A, 7-hydroxy-1-methyl-1-phenyl-5-(3,3,3-trifluoropropyl)-1,2,3,4,4a,5-hexahydrodipyrido[1,2-b:2′,1′-f][1,2,4]triazine-6,8-dione], the EC50 is reported as > 8100 nM.
`CC1(c2ccccc2)CCCC2N(CCC(F)(F)F)C(=O)c3c(O)c(=O)ccn3N21` (single isomer, unassigned) [Compound 38B, 7-hydroxy-1-methyl-1-phenyl-5-(3,3,3-trifluoropropyl)-1,2,3,4,4a,5-hexahydrodipyrido[1,2-b:2′,1′-f][1,2,4]triazine-6,8-dione] was tested, and the EC50 was 5.8 nM.
